As usually defined, the IC50 is the midpoint of a concentration-inhibition curve. The low end stands for inhibition by little substance, the high end for a need for much substance. Usually melting point stands for the temperature, or range, at which the solid turns liquid.

The source of these data is patent publication US8067442B2, “Heterocyclic antiviral compounds” (Roche Palo Alto LLC, priority 2008, dated 2011).

The target of data set [1] is T1, HCV polymerase (NS5B570n-Con1) (Hepatitis C virus genotype 1b, UniProt Q9WMX2).
T1 construct: a 21 amino acid C-terminal deletion of full-length HCV polymerase; made in house; host or cells: E. coli BL21(DE3) pLysS, plasmid pET17b
As to the kind of experiment: biochemical. More on the design: species or system HCV Con1 strain.

Data set [2] relates to HCV replicon cells (2209-23), genotype 1b replicon in human hepatoma Huh7 cells. As to the kind of experiment: HCV replicon assay (Renilla luciferase reporter). The data set is classed as cell-based, HCV genotype 1b. Particulars: Hepatitis C virus, Huh-7, 72 h; 2209-23 cells, three days incubation.
The next data set is described as follows: in vitro. The note with it: human.
A further data set deals with HCV. The note with it: cited from earlier work.

For `CC(C)(C)c1cc(-c2ccc[nH]c2=O)cc2c(-c3cccc(C(N)=O)c3)coc12` [Compound I-78, 3-[7-tert-Butyl-5-(2-oxo-1,2-dihydro-pyridin-3-yl)-benzofuran-3-yl]-benzamide], the melting point was 190 to 193 °C. Also, the IC50 in data set [1] was 9 nM. In data set [2], the midpoint of inhibition, the IC50, lay at 78 nM. The CC50 in “in vitro” was found to be 12.4 µM.
Regarding `CC(C)(C)c1cc(-c2ccc[nH]c2=O)cc2c(-c3ccc(N)cc3)coc12` [Compound I-86], the melting point fell in the range of 248 to 250 °C. In data set [2], this compound showed an IC50 of 346 nM. Besides, the CC50 in “in vitro” amounted to 29.2 µM.
Turning to `CC(C)(C)c1cc(-c2ccc[nH]c2=O)cc2c(C(=O)N3CCC[C@H](CNS(C)(=O)=O)C3)coc12` [Compound I-100], the 50% inhibitory concentration (IC50) amounted to 8 nM in data set [1] and 14 nM in data set [2].
Consider `NC(=O)c1ncn([C@@H]2O[C@H](CO)[C@@H](O)[C@H]2O)n1` [ribavirin, 1-((2R,3R,4S,5R)-3,4-Dihydroxy-5-hydroxymethyl-tetrahydro-furan-2-yl)-1H-[1,2,4]triazole-3-carboxylic acid amide], for which the “serum levels of HCV-RNA” value in the data set on HCV (monotherapy / sole treatment) is “does not lower”. Further, the “patients in whom serum amino transferase levels are reduced to normal” value in the data set with HCV (monotherapy) was 40%.
